Source: PMC4707489, “A novel cell-penetrating peptide suppresses breast tumorigenesis by inhibiting β-catenin/LEF-1 signaling” (Scientific Reports, 2016)

Columns and labels:
[1] = tested on: MCF-7 cells; assay: Wound-healing migration assay; assay type: cell-based, human; settings: MCF-7, 100 μmol/l, 48 hr post-transfection, vs control or TAT-NLS-BLBD-6m (Fig. 3d)
Protocol: (§1) Transwell chambers of […] pore size were used in the in vitro invasion assay. MCF-7 and MDA-MB-231 cells were seeded onto the upper chamber and incubated with TAT-NLS-BLBD-6 and TAT-NLS-BLBD-6m peptide and 10% fetal bovine serum medium were added to the bottom chamber well. After 24 hr, cells invading the lower chamber were fixed with 4% paraformaldehyde solution and stained with 0.1% crystal violet for 30 min at 37 °C. Three random field images were obtained by microscopy, and the number of invading cells were counted. For the migration assay, MCF-7 and MDA-MB-231 cells were seeded onto 6-well plates. After 24 hr, an artificial wound was created using a 10-μl pipette tip, and the wound was incubated with TAT-NLS-BLBD-6 or TAT-NLS-BLBD-6m for 24 hr at 37 °C. The images of wound healing were captured by microscopy, and the wound healing distances were calculated by Image J (U.S. National Institutes of Health, Bethesda, MD, USA). For the colony formation assay, MCF-7 and MDA-MB-231 cells were seeded into 10-cm dishes with the medium containing TAT-NLS-BLBD-6 or TAT-NLS-BLBD-6m. After 2 weeks, cells were fixed with 4% paraformaldehyde solution and stained with 0.1% crystal violet for 30 min at 37 °C.

[2] = tested on: MDA-MB-231 cells; assay: Wound-healing migration assay; assay type: cell-based, human; settings: MDA-MB-231, 100 μmol/l, 48 hr post-transfection, vs control or TAT-NLS-BLBD-6m (Fig. 3d)
Protocol: as §1

[3] = tested on: H184B5F5/M10 cells

Substance: H-TAT-NLS-ATDEMIPF-NH2 [TAT-NLS-BLBD-6]
- migration (wound healing) [1]: inhibited the mobility
- migration (wound healing) [2]: inhibited the mobility
- cell growth of normal mammary epithelial cells [3]: did not inhibit the growth
